Assay results from ChEMBL document CHEMBL1139181, “Design and synthesis of novel heterobiaryl amides as metabotropic glutamate receptor subtype 5 antagonists” (Bioorg Med Chem Lett, 2007).

Target: Metabotropic glutamate receptor 5 (Rattus norvegicus, UniProt P31424)
Test: Displacement of [3H]MPEP from mGluR5 in rat brain membrane
Type: cell membranes

Sequence of Metabotropic glutamate receptor 5 (Rattus norvegicus, UniProt P31424) (P31424 whole entry): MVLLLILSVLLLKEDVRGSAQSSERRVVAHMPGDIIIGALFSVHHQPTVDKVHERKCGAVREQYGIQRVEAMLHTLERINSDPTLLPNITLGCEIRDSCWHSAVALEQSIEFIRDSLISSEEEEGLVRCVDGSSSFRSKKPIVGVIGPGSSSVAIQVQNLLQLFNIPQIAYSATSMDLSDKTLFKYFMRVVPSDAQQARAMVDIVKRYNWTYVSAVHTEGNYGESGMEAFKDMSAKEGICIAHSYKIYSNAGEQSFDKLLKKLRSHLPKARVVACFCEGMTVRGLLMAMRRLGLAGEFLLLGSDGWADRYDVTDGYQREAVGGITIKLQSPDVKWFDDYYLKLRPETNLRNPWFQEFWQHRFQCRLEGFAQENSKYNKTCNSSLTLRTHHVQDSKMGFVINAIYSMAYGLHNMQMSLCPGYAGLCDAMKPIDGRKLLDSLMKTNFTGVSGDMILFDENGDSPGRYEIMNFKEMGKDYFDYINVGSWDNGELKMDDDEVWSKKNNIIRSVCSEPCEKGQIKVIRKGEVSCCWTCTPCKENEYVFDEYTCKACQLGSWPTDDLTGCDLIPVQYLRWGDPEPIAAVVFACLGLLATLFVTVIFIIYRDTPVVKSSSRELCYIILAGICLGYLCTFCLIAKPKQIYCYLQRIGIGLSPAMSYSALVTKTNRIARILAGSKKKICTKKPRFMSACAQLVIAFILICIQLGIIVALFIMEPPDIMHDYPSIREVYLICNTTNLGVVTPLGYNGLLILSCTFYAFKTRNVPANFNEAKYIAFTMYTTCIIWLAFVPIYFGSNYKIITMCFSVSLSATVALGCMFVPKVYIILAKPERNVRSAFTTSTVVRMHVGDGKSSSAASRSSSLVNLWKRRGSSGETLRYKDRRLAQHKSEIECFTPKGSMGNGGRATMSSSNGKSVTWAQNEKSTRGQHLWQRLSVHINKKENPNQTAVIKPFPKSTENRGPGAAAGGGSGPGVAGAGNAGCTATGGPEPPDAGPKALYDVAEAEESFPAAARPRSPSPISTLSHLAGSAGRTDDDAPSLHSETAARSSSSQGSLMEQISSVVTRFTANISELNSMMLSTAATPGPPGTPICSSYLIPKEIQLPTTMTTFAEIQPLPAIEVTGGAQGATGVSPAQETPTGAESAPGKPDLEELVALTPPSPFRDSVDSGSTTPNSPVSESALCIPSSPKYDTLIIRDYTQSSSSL

Compared with Cc1cccc(NC(=O)c2nccc3ccccc23)n1, Cc1cccc(NC(=O)c2cc(-c3cccc4ccccc34)ccn2)n1 is 1.8-fold lower in Ki: 440 nM for the first, 250 nM for the second. The second binds more tightly here.

Compared with COc1ccccc1-c1ccc(C(=O)Nc2cccc(C)n2)nc1, Cc1cccc(NC(=O)c2ccc(-c3ccccc3)cn2)n1 is 5-fold higher in Ki: 560 nM for the first, 2800 nM for the second. The first binds more tightly here.

Compared with Cc1cccc(NC(=O)c2nccn2C)n1, Cc1cccc(NC(=O)c2cccn2C)n1 is higher in Ki: 3070 nM for the first, over 10000 nM for the second. The first binds more tightly here.

Compared with Cc1cccc(NC(=O)c2cc(-c3cc(F)cc(F)c3)ccn2)n1, Cc1cccc(NC(=O)c2cc(-c3cccc(F)c3)ccn2)n1 is 12-fold higher in Ki: 43 nM for the first, 500 nM for the second. The first binds more tightly here.

Compared with Cc1cccc(NC(=O)c2ccc(-c3ccccn3)cn2)n1, Cc1cccc(NC(=O)c2cc(-c3ncccn3)ccn2)n1 is 25-fold higher in Ki: 100 nM for the first, 2480 nM for the second.

Cc1cccc(NC(=O)c2cc(-c3cccc(C#N)c3)ccn2)n1 showed a Ki of 320 nM.

Target: Metabotropic glutamate receptor 5 (Homo sapiens, UniProt P41594)
Sequence (P41594 whole entry): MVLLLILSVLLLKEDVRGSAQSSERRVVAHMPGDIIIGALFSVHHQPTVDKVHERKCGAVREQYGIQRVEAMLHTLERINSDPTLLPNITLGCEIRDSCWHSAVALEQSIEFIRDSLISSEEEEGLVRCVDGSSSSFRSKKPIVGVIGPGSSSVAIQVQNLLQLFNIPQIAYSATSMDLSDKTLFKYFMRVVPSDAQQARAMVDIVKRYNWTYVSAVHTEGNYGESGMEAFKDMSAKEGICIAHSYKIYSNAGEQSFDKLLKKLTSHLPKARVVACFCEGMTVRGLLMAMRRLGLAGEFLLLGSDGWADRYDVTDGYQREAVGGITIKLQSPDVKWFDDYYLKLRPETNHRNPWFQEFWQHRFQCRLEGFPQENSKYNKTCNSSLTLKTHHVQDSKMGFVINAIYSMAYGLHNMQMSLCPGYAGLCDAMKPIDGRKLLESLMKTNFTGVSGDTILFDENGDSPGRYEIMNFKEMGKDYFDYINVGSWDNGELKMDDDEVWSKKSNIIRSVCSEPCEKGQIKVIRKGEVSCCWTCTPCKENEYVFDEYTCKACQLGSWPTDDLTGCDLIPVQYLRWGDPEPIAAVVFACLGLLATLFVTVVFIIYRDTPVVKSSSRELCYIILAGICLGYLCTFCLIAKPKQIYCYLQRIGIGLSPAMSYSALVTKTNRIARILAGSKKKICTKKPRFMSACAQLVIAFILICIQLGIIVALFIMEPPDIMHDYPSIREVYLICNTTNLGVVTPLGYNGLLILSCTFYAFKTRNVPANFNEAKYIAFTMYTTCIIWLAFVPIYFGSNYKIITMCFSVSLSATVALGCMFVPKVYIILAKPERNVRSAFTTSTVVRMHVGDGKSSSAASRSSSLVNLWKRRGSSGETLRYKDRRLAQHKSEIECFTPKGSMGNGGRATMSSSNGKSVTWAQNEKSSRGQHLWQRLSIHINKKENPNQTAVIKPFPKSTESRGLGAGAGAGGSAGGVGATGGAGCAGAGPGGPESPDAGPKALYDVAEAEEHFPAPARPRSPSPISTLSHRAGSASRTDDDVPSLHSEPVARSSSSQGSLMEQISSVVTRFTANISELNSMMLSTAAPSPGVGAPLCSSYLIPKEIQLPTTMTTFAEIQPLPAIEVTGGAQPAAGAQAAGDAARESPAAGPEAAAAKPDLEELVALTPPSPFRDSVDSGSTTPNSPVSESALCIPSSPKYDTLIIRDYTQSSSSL
Test: Antagonist activity at mGluR5 expressed in CHO cells assessed as phosphoinositide hydrolysis
Type: functional, cell-based

Going from Cc1cccc(NC(=O)c2cc(-c3cc(F)cc(F)c3)ccn2)n1 to Cc1cccc(NC(=O)c2cc(-c3cccc(C#N)c3)ccn2)n1, the IC50 rises from 0.16 µM to 7.3 µM (46-fold). The first is the more potent here.

For Cc1cccc(NC(=O)c2ccc(-c3ccccn3)cn2)n1, the IC50 was 12.4 µM.

Target: Metabotropic glutamate receptor 5 (Rattus norvegicus) (UniProt P31424)
Sequence (P31424 21-1203 limits assumed): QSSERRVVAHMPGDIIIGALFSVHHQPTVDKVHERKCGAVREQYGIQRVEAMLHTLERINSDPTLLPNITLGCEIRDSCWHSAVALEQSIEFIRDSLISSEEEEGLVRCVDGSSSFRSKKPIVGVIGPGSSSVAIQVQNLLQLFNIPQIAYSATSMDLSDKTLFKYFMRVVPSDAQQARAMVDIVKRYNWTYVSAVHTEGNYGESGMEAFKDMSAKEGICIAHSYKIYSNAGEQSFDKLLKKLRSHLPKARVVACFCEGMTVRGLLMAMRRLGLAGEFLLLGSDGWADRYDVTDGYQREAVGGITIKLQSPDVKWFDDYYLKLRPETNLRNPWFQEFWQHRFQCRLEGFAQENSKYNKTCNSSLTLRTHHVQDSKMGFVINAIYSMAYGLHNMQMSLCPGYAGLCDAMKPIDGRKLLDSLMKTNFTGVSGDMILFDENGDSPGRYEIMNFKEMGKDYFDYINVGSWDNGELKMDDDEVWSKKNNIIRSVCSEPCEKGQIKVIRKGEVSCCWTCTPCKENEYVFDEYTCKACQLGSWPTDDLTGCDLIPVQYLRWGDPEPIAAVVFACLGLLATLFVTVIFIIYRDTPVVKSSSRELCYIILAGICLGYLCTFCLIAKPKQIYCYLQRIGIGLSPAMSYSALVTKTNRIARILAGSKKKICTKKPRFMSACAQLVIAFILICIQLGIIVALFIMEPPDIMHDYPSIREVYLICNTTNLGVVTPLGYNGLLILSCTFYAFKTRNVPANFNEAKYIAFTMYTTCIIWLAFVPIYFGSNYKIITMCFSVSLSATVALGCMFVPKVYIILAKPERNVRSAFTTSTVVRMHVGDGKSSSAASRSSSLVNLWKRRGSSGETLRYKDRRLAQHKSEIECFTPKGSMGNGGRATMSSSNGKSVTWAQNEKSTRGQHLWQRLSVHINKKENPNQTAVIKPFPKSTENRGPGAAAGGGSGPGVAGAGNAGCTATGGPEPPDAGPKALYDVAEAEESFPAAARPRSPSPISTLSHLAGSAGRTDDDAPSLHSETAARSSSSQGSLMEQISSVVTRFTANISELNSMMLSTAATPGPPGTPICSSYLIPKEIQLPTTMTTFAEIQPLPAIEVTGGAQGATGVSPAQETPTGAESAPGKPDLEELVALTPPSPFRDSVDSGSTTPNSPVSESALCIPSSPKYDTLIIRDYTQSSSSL
Test: Displacement of [3H]MPEP from mGluR5 in rat brain membrane at 10 uM
Type: cell membranes

Going from Cc1cccc(NC(=O)c2cc(Cl)ccn2)n1 to Cc1cccc(NC(=O)c2cc(-c3cccs3)ccn2)n1, the Activity falls from 28% to under 1%.

Compared with Cc1cccc(NC(=O)c2cc3ccccc3[nH]2)n1, Cc1cccc(NC(=O)c2cc3ccccc3s2)n1 is higher in Activity: under 1% for the first, 11% for the second.

Going from Cc1cccc(NC(=O)c2ccc(-c3cccc(C#N)c3)cn2)n1 to Cc1cccc(NC(=O)c2ccc(-c3cccs3)cn2)n1, the Activity rises from 7.4% to 40%.

Going from Cc1cccc(NC(=O)c2cc(-c3ccc4ccccc4c3)ccn2)n1 to COc1cccc(-c2ccnc(C(=O)Nc3cccc(C)n3)c2)c1, the Activity falls from 32% to 13%.

First: Cc1cccc(NC(=O)c2cc3ccccc3n2C)n1
Second: Cc1cccc(NC(=O)c2cc3ccccc3o2)n1
The Activity of the first is lower: 8% for the first, 40% for the second.

Compared with Cc1cccc(NC(=O)c2csc(-c3ccccc3)n2)n1, COc1ccccc1-c1ccnc(C(=O)Nc2cccc(C)n2)c1 is higher in Activity: under 1% for the first, 91% for the second.
